Measurements reported in US20150265614A1, “ORAL PREPARATION AND METHOD FOR PRODUCING THE SAME” (CHUNG-ANG UNIVERSITY INDUSTRY-ACADEMY COOPERATION FOUNDATION, priority 2012, published 2015).

Test: laser scattering particle size analysis of naproxen crystal particles
Assay type: physicochemical
Conditions: HORIBA LA-910 laser scattering particle size analyzer
Description: The sizes of the crystal particles of naproxen prepared in Examples 6 and 7 and Comparative Example 2 were observed. Specifically, the degree of dispersion of the particle sizes of a nonsteroidal anti-inflammatory drug (NSAID) agent naproxen ((+)-(S)-2-(6-methoxynaphthalen-2-yl)propanoic acid) was observed by using HORIBA LA-910 LASER SCATTERING PARTICLE SIZE ANALYZER. The observation results are each illustrated in FIGS. 16 to 18.

With `COc1ccc2cc([C@H](C)C(=O)O)ccc2c1` [Comparative Example 2, (+)-(s)-2-(6-methoxynaphthalen-2-yl)propanoic acid] the “average particle diameter / average crystal size of naproxen” value was 9.5 μm.
